Where two headings read alike, the source gives them in different places.
What was measured:
LOX IMVI = test: NCI60 screen (SRB), Melanoma; format: cell-based; conditions: Homo sapiens
SF-268 = test: NCI60 screen (SRB), CNS Cancer; format: cell-based; conditions: Homo sapiens
SK-MEL-28 = test: NCI60 screen (SRB), Melanoma; format: cell-based; conditions: Homo sapiens
SNB-19 = test: NCI60 screen (SRB), CNS Cancer; format: cell-based; conditions: Homo sapiens
NCI/ADR-RES = test: NCI60 screen (SRB), Ovarian cancer; format: cell-based; conditions: Homo sapiens
MDA-MB-435 = test: NCI60 screen (SRB), Melanoma; format: cell-based; conditions: Homo sapiens
OVCAR-4 = test: NCI60 screen (SRB), Ovarian cancer; format: cell-based; conditions: Homo sapiens
HT29 = test: NCI60 screen (SRB), Colon Cancer; format: cell-based; conditions: Homo sapiens, HT-29
CAKI-1 = test: NCI60 screen (SRB), Renal cancer; format: cell-based; conditions: Homo sapiens
BT-549 = test: NCI60 screen (SRB), Breast cancer; format: cell-based; conditions: Homo sapiens
UO-31 = test: NCI60 screen (SRB), Renal cancer; format: cell-based; conditions: Homo sapiens
SN12C = test: NCI60 screen (SRB), Renal cancer; format: cell-based; conditions: Homo sapiens
MCF-7 = test: NCI60 screen (SRB), Breast cancer; format: cell-based; conditions: Homo sapiens, MCF7
SK-OV-3 = test: NCI60 screen (SRB), Ovarian cancer; format: cell-based; conditions: Homo sapiens
SNB-75 = test: NCI60 screen (SRB), CNS Cancer; format: cell-based; conditions: Homo sapiens
OVCAR-5 = test: NCI60 screen (SRB), Ovarian cancer; format: cell-based; conditions: Homo sapiens
M14 = test: NCI60 screen (SRB), Melanoma; format: cell-based; conditions: Homo sapiens
UACC-62 = test: NCI60 screen (SRB), Melanoma; format: cell-based; conditions: Homo sapiens
A498 = test: NCI60 screen (SRB), Renal cancer; format: cell-based; conditions: Homo sapiens
HS 578T = test: NCI60 screen (SRB), Breast cancer; format: cell-based; conditions: Homo sapiens
DU-145 = test: NCI60 screen (SRB), Prostate cancer; format: cell-based; conditions: Homo sapiens
MDA-MB-231/ATCC = test: NCI60 screen (SRB), Breast cancer; format: cell-based, human; conditions: for IC50: value from NCI (footnote b)
CCRF-CEM = test: NCI60 screen (SRB), Leukemia; format: cell-based; conditions: Homo sapiens
SF539 = test: NCI60 screen (SRB), CNS Cancer; format: cell-based; conditions: Homo sapiens, SF-539
MOLT-4 = test: NCI60 screen (SRB), Leukemia; format: cell-based; conditions: Homo sapiens
SR = test: NCI60 screen (SRB), Leukemia; format: cell-based; conditions: Homo sapiens
OVCAR-8 = test: NCI60 screen (SRB), Ovarian cancer; format: cell-based; conditions: Homo sapiens
[1] = NCI60 Melanoma cell line LOX IMVI, read-out: GI50
[2] = NCI60 CNS Cancer cell line SF-268, read-out: GI50
[3] = NCI60 Melanoma cell line SK-MEL-28, read-out: GI50
[4] = NCI60 CNS Cancer cell line SNB-19, read-out: GI50
[5] = NCI60 Ovarian cancer cell line NCI/ADR-RES, read-out: GI50
[6] = NCI60 Melanoma cell line MDA-MB-435, read-out: GI50
[7] = NCI60 Ovarian cancer cell line OVCAR-4, read-out: GI50
[8] = NCI60 Colon Cancer cell line HT29, read-out: GI50
[9] = NCI60 Renal cancer cell line CAKI-1, read-out: GI50
[10] = NCI60 Breast cancer cell line BT-549, read-out: GI50
[11] = NCI60 Renal cancer cell line UO-31, read-out: GI50
[12] = NCI60 Renal cancer cell line SN12C, read-out: GI50
[13] = NCI result in MCF-7 cells, read-out: GI50
[14] = NCI60 Ovarian cancer cell line SK-OV-3, read-out: GI50
[15] = NCI60 CNS Cancer cell line SNB-75, read-out: GI50
[16] = NCI60 Ovarian cancer cell line OVCAR-5, read-out: GI50
[17] = NCI60 Melanoma cell line M14, read-out: GI50
[18] = NCI60 Melanoma cell line UACC-62, read-out: GI50
[19] = NCI60 Renal cancer cell line A498, read-out: GI50
[20] = NCI60 Breast cancer cell line HS 578T, read-out: GI50
[21] = NCI60 Prostate cancer cell line DU-145, read-out: GI50
[22] = Homo sapiens, NCI60 Breast cancer cell line MDA-MB-231/ATCC, read-out: GI50
[23] = NCI60 Leukemia cell line CCRF-CEM, read-out: GI50
[24] = NCI60 CNS Cancer cell line SF539, read-out: GI50
[25] = NCI60 Leukemia cell line MOLT-4, read-out: GI50
[26] = NCI60 Leukemia cell line SR, read-out: GI50
[27] = NCI60 Ovarian cancer cell line OVCAR-8, read-out: GI50

C=CC1C(=O)N(c2cc(OC)c(OC)c(OC)c2)C1c1ccc(OC)cc1 (stereo not drawn) [Compound 7h, 4-(4-Methoxyphenyl)-1-(3,4,5-trimethoxyphenyl)-3-vinylazetidin-2-one]
GI50 (LOX IMVI; LOX IMVI): 0.0416 µM
GI50 (SF-268; SF-268): 0.0476 µM
GI50 (SK-MEL-28; SK-MEL-28): 0.0599 µM
GI50 (SNB-19; SNB-19): 0.0542 µM
GI50 (NCI/ADR-RES; NCI/ADR-RES): 0.0272 µM
GI50 (MDA-MB-435; MDA-MB-435): 0.0226 µM
GI50 (OVCAR-4; OVCAR-4): 0.0776 µM
GI50 (HT29): 0.0337 µM
GI50 (CAKI-1; CAKI-1): 0.392 µM
GI50 (BT-549; BT-549): 0.0325 µM
GI50 (UO-31; UO-31): 0.0709 µM
GI50 (SN12C; SN12C): 0.0552 µM
GI50 (MCF-7): 0.0306 µM
GI50 (SK-OV-3; SK-OV-3): 0.0285 µM
GI50 (SNB-75; SNB-75): 0.0372 µM
GI50 (OVCAR-5; OVCAR-5): 0.0587 µM
GI50 (M14; M14): 0.0252 µM
GI50 (UACC-62; UACC-62): 0.0502 µM
GI50 (A498; A498): 0.0183 µM
GI50 (HS 578T; Hs-578T): 0.0727 µM
GI50 (DU-145; DU-145): 0.0298 µM
GI50 (MDA-MB-231/ATCC; Homo sapiens, MDA-MB-231): 0.0317 µM
IC50 (MDA-MB-231/ATCC; Homo sapiens, MDA-MB-231, read-out: Antiproliferative Activity IC50, MDA-MB-231): 0.031 µM
IC50 (MDA-MB-231/ATCC; read-out: Antiproliferative Activity IC50, MDA-MB-231): 0.0317 µM

C=CC1C(=O)N(c2cc(OC)c(OC)c(OC)c2)C1c1ccc(OC)c(O)c1 (stereo not drawn) [Compound 7s, 4-[3-Hydroxy-4-methoxyphenyl]-1-(3,4,5-trimethoxyphenyl)-3-vinylazetidin-2-one]
GI50 (LOX IMVI; [1]): < 0.01 µM
GI50 (SF-268; [2]): < 0.01 µM
GI50 (SK-MEL-28; [3]): < 0.01 µM
GI50 (SNB-19; [4]): 0.0405 µM
GI50 (NCI/ADR-RES; [5]): < 0.01 µM
GI50 (MDA-MB-435; [6]): < 0.01 µM
GI50 (OVCAR-4; [7]): 0.0131 µM
GI50 (HT29; [8]): 0.429 µM
GI50 (CAKI-1; [9]): 0.0402 µM
GI50 (BT-549; [10]): < 0.01 µM
GI50 (UO-31; [11]): 0.0111 µM
GI50 (SN12C; [12]): < 0.01 µM
GI50 (MCF-7; [13]): < 0.01 µM
GI50 (SK-OV-3; [14]): 0.0105 µM
GI50 (SNB-75; [15]): 0.0153 µM
GI50 (OVCAR-5; [16]): 0.0453 µM
GI50 (M14; [17]): < 0.01 µM
GI50 (UACC-62; [18]): < 0.01 µM
GI50 (A498; [19]): < 0.01 µM
GI50 (HS 578T; [20]): < 0.01 µM
GI50 (DU-145; [21]): < 0.01 µM
IC50 (MDA-MB-231/ATCC; Homo sapiens, MDA-MB-231, read-out: Antiproliferative Activity IC50): 0.01 µM
GI50 (MDA-MB-231/ATCC; [22]): < 0.01 µM

C=CC1C(=O)N(c2cc(OC)c(OC)c(OC)c2)C1c1ccc(OC)c(N)c1 (stereo not drawn) [Compound 7t, 4-(3-Amino-4-methoxyphenyl)-1-(3,4,5-trimethoxyphenyl)-3-vinylazetidin-2-one]
GI50 (CCRF-CEM; CCRF-CEM): 0.0326 µM
GI50 (LOX IMVI; LOX IMVI): < 0.01 µM
GI50 (SF-268; SF-268): 0.0546 µM
GI50 (SF539): < 0.01 µM
GI50 (MOLT-4; MOLT-4): 0.04 µM
GI50 (SK-MEL-28; SK-MEL-28): 0.0181 µM
GI50 (SNB-19; SNB-19): 0.049 µM
GI50 (SR; SR): 0.0439 µM
GI50 (NCI/ADR-RES; NCI/ADR-RES): < 0.01 µM
GI50 (MDA-MB-435; MDA-MB-435): < 0.01 µM
GI50 (OVCAR-4; OVCAR-4): < 0.01 µM
GI50 (HT29): 0.0179 µM
GI50 (CAKI-1; CAKI-1): 0.0329 µM
GI50 (BT-549; BT-549): 0.0259 µM
GI50 (UO-31; UO-31): 0.064 µM
GI50 (MCF-7): < 0.01 µM
GI50 (SK-OV-3; SK-OV-3): 0.0457 µM
GI50 (SNB-75; SNB-75): 0.0301 µM
GI50 (OVCAR-5; OVCAR-5): 0.0446 µM
GI50 (M14; M14): 0.0272 µM
GI50 (UACC-62; UACC-62): 12.3 µM
GI50 (A498; A498): 0.011 µM
GI50 (HS 578T; Hs-578T): 0.0398 µM
GI50 (OVCAR-8; OVCAR-8): 0.0148 µM
GI50 (DU-145; DU-145): 0.0365 µM
GI50 (MDA-MB-231/ATCC; Homo sapiens, MDA-MB-231): 0.0415 µM

C=CC1C(=O)N(c2cc(OC)c(OC)c(OC)c2)C1c1ccc(OC)c(OP(=O)(O)O)c1 (stereo not drawn) [Compound 17b, 2-Methoxy-5-(1-(3,4,5-trimethoxyphenyl)-4-oxo-3-vinylazetidin-2-yl)phenyl dihydrogen phosphate]
GI50 (CCRF-CEM; [23]): 0.0604 µM
GI50 (LOX IMVI; [1]): 0.0422 µM
GI50 (SF-268; [2]): 0.0884 µM
GI50 (SF539; [24]): 0.042 µM
GI50 (MOLT-4; [25]): 0.129 µM
GI50 (SK-MEL-28; [3]): 0.0977 µM
GI50 (SNB-19; [4]): 0.459 µM
GI50 (SR; [26]): 0.0572 µM
GI50 (NCI/ADR-RES; [5]): 0.037 µM
GI50 (MDA-MB-435; [6]): 0.021 µM
GI50 (OVCAR-4; [7]): 0.16 µM
GI50 (HT29; [8]): 2.78 µM
GI50 (CAKI-1; [9]): 0.0717 µM
GI50 (BT-549; [10]): 0.115 µM
GI50 (UO-31; [11]): 0.254 µM
GI50 (SN12C; [12]): 0.146 µM
GI50 (MCF-7; [13]): 0.0394 µM
GI50 (SK-OV-3; [14]): 0.0977 µM
GI50 (SNB-75; [15]): 0.0365 µM
GI50 (OVCAR-5; [16]): 3.57 µM
GI50 (M14; [17]): 0.748 µM
GI50 (UACC-62; [18]): 0.0511 µM
GI50 (A498; [19]): 0.0218 µM
GI50 (HS 578T; [20]): 0.0531 µM
GI50 (OVCAR-8; [27]): 0.0442 µM
GI50 (DU-145; [21]): 0.0596 µM
IC50 (MDA-MB-231/ATCC; Homo sapiens, MDA-MB-231, MDA-MB-231, read-out: Antiproliferative Activity IC50): 0.049 µM
GI50 (MDA-MB-231/ATCC; [22]): 0.0486 µM
IC50 (MDA-MB-231/ATCC; MDA-MB-231, read-out: Antiproliferative Activity IC50): 0.0486 µM

CCC1C(=O)N(c2cc(OC)c(OC)c(OC)c2)C1c1ccc(OC)c(OP(=O)(O)O)c1 (stereo not drawn) [Compound 17c, 5-(3-Ethyl-1-(3,4,5-trimethoxyphenyl)-4-oxoazetidin-2-yl)-2-methoxyphenyl dihydrogen phosphate]
GI50 (CCRF-CEM; [23]): 0.0325 µM
GI50 (LOX IMVI; [1]): 0.0241 µM
GI50 (SF-268; [2]): 0.0433 µM
GI50 (SF539; [24]): 0.0162 µM
GI50 (MOLT-4; [25]): 0.0477 µM
GI50 (SK-MEL-28; [3]): 7.46 µM
GI50 (SNB-19; [4]): 0.0639 µM
GI50 (SR; [26]): 0.0335 µM
GI50 (NCI/ADR-RES; [5]): 0.0191 µM
GI50 (MDA-MB-435; [6]): 0.0128 µM
GI50 (OVCAR-4; [7]): 0.168 µM
GI50 (HT29; [8]): 0.356 µM
GI50 (CAKI-1; [9]): 0.0352 µM
GI50 (BT-549; [10]): 0.0338 µM
GI50 (UO-31; [11]): 0.0426 µM
GI50 (SN12C; [12]): 0.0548 µM
GI50 (MCF-7; [13]): 0.0251 µM
GI50 (SK-OV-3; [14]): 0.0341 µM
GI50 (SNB-75; [15]): 0.0237 µM
GI50 (OVCAR-5; [16]): 0.444 µM
GI50 (M14; [17]): 0.0317 µM
GI50 (UACC-62; [18]): 0.0348 µM
GI50 (A498; [19]): 0.0129 µM
GI50 (HS 578T; [20]): 0.0371 µM
GI50 (OVCAR-8; [27]): 0.0327 µM
GI50 (DU-145; [21]): 0.0413 µM
GI50 (MDA-MB-231/ATCC; [22]): 0.031 µM

Source: paper PMC6630832, “3-Vinylazetidin-2-Ones: Synthesis, Antiproliferative and Tubulin Destabilizing Activity in MCF-7 and MDA-MB-231 Breast Cancer Cells” (Pharmaceuticals, 2019)
